Laboratory results published in ChEMBL document CHEMBL1131762, “Synthesis and identification of conformationally constrained selective MMP inhibitors” (Bioorg Med Chem Lett, 1999).

How the values were obtained:
Neutrophil collagenase = Neutrophil collagenase (Homo sapiens, UniProt P22894); experiment: Inhibition of human recombinant matrix metalloprotease-8 (hMMP-8)
Interstitial collagenase = biological target: T1, Interstitial collagenase (Homo sapiens, UniProt P03956); experiment: Inhibition of human recombinant matrix metalloprotease-1 (hMMP-1)
T1 sequence (P03956 whole entry): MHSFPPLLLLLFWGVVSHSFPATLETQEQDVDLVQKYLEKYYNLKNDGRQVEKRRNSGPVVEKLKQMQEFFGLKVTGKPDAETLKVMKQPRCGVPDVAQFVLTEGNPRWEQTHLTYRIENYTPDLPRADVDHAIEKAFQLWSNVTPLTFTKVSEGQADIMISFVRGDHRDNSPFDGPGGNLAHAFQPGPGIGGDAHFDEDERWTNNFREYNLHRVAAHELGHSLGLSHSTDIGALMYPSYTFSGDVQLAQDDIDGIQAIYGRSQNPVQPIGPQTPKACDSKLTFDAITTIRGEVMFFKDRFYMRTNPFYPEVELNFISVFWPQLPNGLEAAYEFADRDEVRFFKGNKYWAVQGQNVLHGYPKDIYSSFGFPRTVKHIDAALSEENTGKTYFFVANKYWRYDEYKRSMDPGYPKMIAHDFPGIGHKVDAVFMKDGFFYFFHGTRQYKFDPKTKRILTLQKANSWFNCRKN

Collagenase 3 = Collagenase 3 (Homo sapiens, UniProt P45452); experiment: Inhibition of human recombinant matrix metalloprotease-13 (hMMP-13)

Neutrophil collagenase, sequence (P22894 whole entry): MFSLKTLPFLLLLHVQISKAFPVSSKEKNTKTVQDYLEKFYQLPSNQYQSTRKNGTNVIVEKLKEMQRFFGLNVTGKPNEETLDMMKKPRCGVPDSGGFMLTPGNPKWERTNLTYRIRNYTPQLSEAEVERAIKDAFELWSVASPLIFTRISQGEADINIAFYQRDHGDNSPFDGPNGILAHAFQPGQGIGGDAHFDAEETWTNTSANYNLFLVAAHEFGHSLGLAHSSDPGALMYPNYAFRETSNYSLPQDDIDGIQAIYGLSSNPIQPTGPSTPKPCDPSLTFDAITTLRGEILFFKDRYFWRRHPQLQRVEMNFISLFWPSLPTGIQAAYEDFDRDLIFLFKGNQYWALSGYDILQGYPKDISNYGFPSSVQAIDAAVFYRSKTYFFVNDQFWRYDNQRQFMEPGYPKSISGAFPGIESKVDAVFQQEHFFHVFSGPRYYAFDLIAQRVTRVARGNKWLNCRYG

IC50 (Neutrophil collagenase) | IC50 (Interstitial collagenase) | Compound | IC50 (Collagenase 3)
585 nM | 1000 nM | COc1ccc(S(=O)(=O)C2CCCC(S)C2)cc1 (centres undefined) | 
50 nM | > 10000 nM | O=S(=O)(c1ccc(Sc2ccccc2)cc1)C1CCCC(S)C1 (centres undefined) | 
 | > 10000 nM | COc1ccc(S(=O)(=O)C2CCC(S)C2)cc1 (centres undefined) | 
1100 nM |  | COc1ccc(S(=O)(=O)CCCS)cc1 | 

Compound | IC50 (Neutrophil collagenase) | IC50 (Interstitial collagenase) | IC50 (Collagenase 3)
O=S(=O)(c1ccc(Oc2ccccc2)cc1)C1CCCC(S)C1 (centres undefined) | 8 nM | 1700 nM | 1 nM
